# Test results taken from USRE38117E1, “Trioxane dimer compound having antiproliferative and antitumor activities” (Hauser, Inc., priority 1995, dated 2003).
# Assays:
# Type in all cases: cell-based
# RPMI-8226 = experiment: NCI 60 cell line screen (SRB), Leukemia; details: RPMI-8226 (Leukemia)
# A549/ATCC = experiment: NCI 60 cell line screen (SRB), Non-Small Cell Lung Cancer
# HOP-92 = experiment: as above; details: HOP-92 (Non-Small Cell Lung Cancer)
# NCI-H322M = experiment: as above
# COLO 205 = experiment: NCI 60 cell line screen (SRB), Colon Cancer; details: COLO 205 (Colon Cancer)
# HCT-15 = experiment: NCI 60 cell line screen (SRB), Colon Cancer; details: HCT-15 (Colon Cancer)
# KM12 = experiment: NCI 60 cell line screen (SRB), Colon Cancer
# SW-620 = experiment: NCI 60 cell line screen (SRB), Colon Cancer; details: SW-620 (Colon Cancer)
# SF-268 = experiment: NCI 60 cell line screen (SRB), CNS Cancer; details: SF-268 (CNS Cancer)
# SNB-19 = experiment: NCI 60 cell line screen (SRB), CNS Cancer; details: SNB-19 (CNS Cancer)
# U251 = experiment: NCI 60 cell line screen (SRB), CNS Cancer
# LOX IMVI = experiment: NCI 60 cell line screen (SRB), Melanoma
# SK-MEL-28 = experiment: NCI 60 cell line screen (SRB), Melanoma; details: SK-MEL-28 (Melanoma)
# OVCAR-3 = experiment: NCI 60 cell line screen (SRB), Ovarian Cancer; details: OVCAR-3 (Ovarian Cancer)
# OVCAR-8 = experiment: NCI 60 cell line screen (SRB), Ovarian Cancer; details: OVCAR-8 (Ovarian Cancer)
# ACHN = experiment: NCI 60 cell line screen (SRB), Renal Cancer
# CAKI-1 = experiment: NCI 60 cell line screen (SRB), Renal Cancer; details: CAKI-1 (Renal Cancer)
# SN12C = experiment: NCI 60 cell line screen (SRB), Renal Cancer
# UO-31 = experiment: NCI 60 cell line screen (SRB), Renal Cancer; details: UO-31 (Renal Cancer)
# MCF7 = experiment: NCI 60 cell line screen (SRB), Breast Cancer
# MCF7/ADR-RES = experiment: NCI 60 cell line screen (SRB), Breast Cancer
# HS 578T = experiment: NCI 60 cell line screen (SRB), Breast Cancer; details: HS 578T (Breast Cancer)
# MDA-N = experiment: NCI 60 cell line screen (SRB), Breast Cancer
# BT-549 = experiment: NCI 60 cell line screen (SRB), Breast Cancer; details: BT-549 (Breast Cancer)
# 60 cell line panel = experiment: NCI 60 cell line screen, values over the whole panel; details: mean value over the cell line panel
# [1] = tested on: murine keratinocyte cell line PE; experiment: Growth inhibition of PE cells (MTT assay); details: murine keratinocytes, FIGS. 1-9
# Procedure: To determine the inhibitory effect of the trioxane dimers of the present invention on cell proliferation, screening assays were performed on a murine keratinocyte cell line PE. […] PE cell culture medium consisted of Eagle's minimal essential medium without calcium chloride (Whittaker Bioproducts, Walkersville, Ma.) supplemented with 8% chelexed fetal calf serum and 1% antibiotic-antimycotic (Gibco BRL) and the addition of CaCl2 to 0.05 mM Ca^++. […] (St. Louis, Mo.), and TPA was supplied by L. C. Services (Woburn, Ma.). L-[^14C]ornithine ([…]) was from Amersham/Searle Corp. (Arlington Heights, Ill.). Chemical solvents used in all assays of biological activity were of the highest grade commercially available. Growth Inhibition. […] A mitochondrial dehydrogenase reduces MTT to a blue formazan product with an absorbance maximum of 505 nm in DMSO; the number of viable cells can thus be determined spectrophotometrically. PE cells were seeded at a density of 5,000 cells/well in 50 μL of medium into 96-well microtiter plates. […] The plates were fed once at 48 h, with the readdition of the vitamin D3 analogs at this time. […] After 4 h, the MTT was removed and DMSO added to dissolve the blue formazan dye. Using a microtiter plate reader, the […] was then determined and cell number calculated from blank-subtracted absorbance values.
smiles,measurement,setting,value
"COC1OC2(C)CCC3CCCC(CCOCCC4CCCC5CCC6(C)OOC45C(OC)O6)C31OO2 (stereo not shown) [Compound 6, Trioxane Ether Dimer]",Log10GI50,RPMI-8226,−6.69 M
same,Log10LC50,RPMI-8226,>−4.00 M
same,Log10TGI,RPMI-8226,−5.47 M
same,Log10GI50,A549/ATCC,−5.79 M
same,Log10LC50,A549/ATCC,>−4.00 M
same,Log10TGI,A549/ATCC,>−4.00 M
same,Log10GI50,HOP-92,−5.51 M
same,Log10LC50,HOP-92,>−4.00 M
same,Log10TGI,HOP-92,−4.17 M
same,Log10GI50,NCI-H322M,>−4.00 M
same,Log10LC50,NCI-H322M,>−4.00 M
same,Log10TGI,NCI-H322M,>−4.00 M
same,Log10GI50,COLO 205,−6.85 M
same,Log10LC50,COLO 205,−5.77 M
same,Log10TGI,COLO 205,−6.36 M
same,Log10GI50,HCT-15,−7.28 M
same,Log10LC50,HCT-15,>−4.00 M
same,Log10TGI,HCT-15,>−4.00 M
same,Log10GI50,KM12,−6.85 M
same,Log10LC50,KM12,>−4.00 M
same,Log10TGI,KM12,−4.28 M
same,Log10GI50,SW-620,−6.66 M
same,Log10LC50,SW-620,>−4.00 M
same,Log10TGI,SW-620,>−4.00 M
same,Log10GI50,SF-268,−5.07 M
same,Log10LC50,SF-268,>−4.00 M
same,Log10TGI,SF-268,>−4.00 M
same,Log10GI50,SNB-19,−5.01 M
same,Log10LC50,SNB-19,>−4.00 M
same,Log10TGI,SNB-19,>−4.00 M
same,Log10GI50,U251,−6.35 M
same,Log10LC50,U251,>−4.00 M
same,Log10TGI,U251,>−4.00 M
same,Log10GI50,LOX IMVI,−6.52 M
same,Log10LC50,LOX IMVI,−4.33 M
same,Log10TGI,LOX IMVI,−4.83 M
same,Log10GI50,SK-MEL-28,−4.24 M
same,Log10LC50,SK-MEL-28,>−4.00 M
same,Log10TGI,SK-MEL-28,>−4.00 M
same,Log10GI50,OVCAR-3,−6.10 M
same,Log10LC50,OVCAR-3,>−4.00 M
same,Log10TGI,OVCAR-3,>−4.00 M
same,Log10GI50,OVCAR-8,−6.33 M
same,Log10LC50,OVCAR-8,>−4.00 M
same,Log10TGI,OVCAR-8,>−4.00 M
same,Log10GI50,ACHN,−5.99 M
same,Log10LC50,ACHN,>−4.00 M
same,Log10TGI,ACHN,>−4.00 M
same,Log10GI50,CAKI-1,−5.44 M
same,Log10LC50,CAKI-1,>−4.00 M
same,Log10TGI,CAKI-1,>−4.00 M
same,Log10GI50,SN12C,−5.46 M
same,Log10LC50,SN12C,>−4.00 M
same,Log10TGI,SN12C,>−4.00 M
same,Log10GI50,UO-31,−6.37 M
same,Log10LC50,UO-31,−4.38 M
same,Log10GI50,MCF7,−6.37 M
same,Log10LC50,MCF7,>−4.00 M
same,Log10TGI,MCF7,>−4.00 M
same,Log10GI50,MCF7/ADR-RES,−6.13 M
same,Log10LC50,MCF7/ADR-RES,>−4.00 M
same,Log10TGI,MCF7/ADR-RES,>−4.00 M
same,Log10LC50,HS 578T,>−4.00 M
same,Log10TGI,HS 578T,>−4.00 M
same,Log10GI50,MDA-N,−6.19 M
same,Log10LC50,MDA-N,>−4.00 M
same,Log10TGI,MDA-N,>−4.00 M
same,Log10GI50,BT-549,−5.89 M
same,Log10LC50,BT-549,>−4.00 M
same,Log10TGI,BT-549,>−4.00 M
same,Log10LC50 MG MID,60 cell line panel,−4.05 M
same,Log10TGI MG MID,60 cell line panel,−4.26 M
same,antiproliferative activity,[1],the most antiproliferative
